pIC50: −log10 of the molar value. Activity calls are given as the source filed them. No cut-off for these calls is given here.
Experiments:
[1] = Stability of the compound in simulated gastric/intestinal fluid assessed as compound remaining at 10 mM after 6 hrs by UV/Vis spectroscopic analysis in presence of porcine pepsin and pancreatin relative to control; assay type: physicochemical; conditions: pig; read-out: Stability
[2] = test system: SK-BR-3; assay: Cytotoxicity against ER-negative human SKBR3 cells assessed as growth inhibition after 72 hrs by MTT assay; assay type: functional, cell-based; conditions: for pIC50: SK-BR-3, 72 h
[3] = test system: MCF7; assay: Cytotoxicity against ER-positive human MCF7 cells assessed as growth inhibition after 72 hrs by MTT assay; assay type: functional, cell-based; conditions: for pIC50: MCF7, 72 h
[4] = test system: NIH3T3; assay: Cytotoxicity against mouse 3T3 cells assessed as cell viability at 5 to 20 uM after 72 hrs by MTT assay; assay type: cell-based; conditions: nih3t3, 72 h
[5] = test system: MCF7; assay: Cytotoxicity against ER-positive human MCF7 cells assessed as growth inhibition at 20 uM after 72 hrs by MTT assay; assay type: functional, cell-based
[6] = test system: SK-BR-3; assay: Cytotoxicity against ER-negative human SKBR3 cells assessed as growth inhibition at 10 to 20 uM after 72 hrs by MTT assay; assay type: functional, cell-based
[7] = test system: MCF7; assay: Cytotoxicity against ER-positive human MCF7 cells assessed as growth inhibition at 1 uM after 72 hrs by MTT assay; assay type: functional, cell-based
[8] = test system: SK-BR-3; assay: Cytotoxicity against ER-negative human SKBR3 cells assessed as growth inhibition at 20 uM after 72 hrs by MTT assay; assay type: functional, cell-based
[9] = test system: MCF7; assay: Cytotoxicity against ER-positive human MCF7 cells assessed as growth inhibition at 10 to 20 uM after 72 hrs by MTT assay; assay type: functional, cell-based

SMILES | remaining at 6 h, 10000 µM [1] | pIC50 [2] | pIC50 [3] | Activity [4] | growth inhibition (GI) [2] | growth inhibition (GI) [3] | growth inhibition (GI) [5] | growth inhibition (GI) [6] | growth inhibition (GI) [7] | growth inhibition (GI) [8] | growth inhibition (GI) [9]
Oc1ccc(/C=C\c2cc(O)cc(O)c2)cc1 [CIS-RESVERATROL] | 31% | 4.38 | 4.55 |  |  |  |  |  |  |  | 
O=C1C(Cl)C(c2ccc(Br)cc2)N1c1ccc(Br)cc1 (stereo unspecified) | 87% | 4.96 | 4.78 | Non-toxic | Dose-dependent effect | Dose-dependent effect |  |  |  |  | 
O=C1C(Cl)C(c2ccc(Cl)cc2)N1c1ccccc1 (stereo unspecified) | 83% |  |  | Non-toxic |  |  | Active | Active |  |  | 
O=C1C(Cl)C(c2ccccc2)N1c1ccccc1 (stereo unspecified) | 78% |  |  | Non-toxic |  |  |  | Active | inactive |  | 
O=C1C(Cl)C(c2ccc(Cl)cc2)N1c1ccc(I)cc1 (stereo unspecified) | 70% | 5.02 | 4.93 | Non-toxic | Dose-dependent effect | Dose-dependent effect |  |  |  |  | 
O=C1C(Cl)C(c2ccccc2)N1c1ccc(Cl)cc1 (stereo unspecified) | 80% |  |  | Non-toxic |  | Dose-dependent effect |  | Active |  |  | 
Cc1ccc(C2C(Cl)C(=O)N2c2ccc(C)cc2)cc1 (stereo unspecified) | 79% |  |  | Non-toxic |  |  |  |  |  | Active | inactive

Source: ChEMBL document CHEMBL2440023, “Biological activity of 3-chloro-azetidin-2-one derivatives having interesting antiproliferative activity on human breast cancer cell lines” (Bioorg Med Chem Lett, 2013)
